Test results from patent US20230015647A1, “INHIBITORS OF HISTONE DEMETHYLASES (PFI-63 AND PFI-90) FOR THE TREATMENT OF CANCER AND FOR THE INHIBITION OF HISTONE DEMETHYLASE IN CELLS” (The United States of America,as represented by the …, priority 2019, published 2023).
“Also recorded” adds a separate entry of the source.

How the values were obtained:
histone H3 methylation = assay: Western blot of histone H3 methylation in treated cells; assay type: cell-based
From the text: A diagram illustrating this activity is provided as FIG. 26.
Analysis via Western blot confirms that PFI-90 inhibits lysine demethylase activity.

SCMC cells = assay: Caspase 3 apoptosis assay in SCMC cells; assay type: cell-based, human
From the text: The impact of PFI-63 and PFI-90 on apoptosis in rhabdomyosarcoma cells was investigated by assaying caspase 3 levels in the cells, and by annexin V staining.

[1] = system: PAX3-FOXO1 fusion transcription factor; assay: RH4 ALK-Luc luciferase reporter assay (PAX3-FOXO1 super enhancer activity); assay type: cell-based, human; settings: for Avg Absorbance @ 1 μM, ALK-Luc / Avg Absorbance @ 10 μM, ALK-Luc: RH4 ALK-Luc reporter
Experimental: The screen was performed using two derivatives of RH4 FP-RMS cells: • (1) “ALK-Luc cells”—RH4 cells expressing a pGreenFire green fluorescent protein (GFP)-luciferase reporter (SEQ ID NO: 1) controlled by the PAX3-FOXO1-dependent intronic ALK super enhancer (for reporting on PAX3-FOXO1 activity) (FIGS. 1 and 2); and • (2) “CMV-Luc cells”—control RH4 cells in which the reporter is transcribed from a constitutively active cytomegalovirus (CMV) promoter. An Example of visualization via the ALK-Luc reporter is depicted in FIG. 3.
The cells were enriched for reporter expression levels and used for assay development. A high throughput screening assay was developed after optimization of cell seeding density, length of incubation of cells prior to and post treatment with test compounds, and effect of passaging among other factors. The screen was designed to identify compounds that suppressed PAX3-FOXO1 activity without disrupting viability (at a short time points) or general transcription. The assay simultaneously monitors the function of the PAX3-FOXO1 super enhancer (also referred to as “ALK super enhancer”), general transcriptional activity as well as cell viability.
The visual summary of the screening strategy is illustrated in FIG. 4. ALK-Luc cells were seeded in both white-walled and white-bottomed 384-well plates (Perkin Elmer, Cat #6007658) for luciferase assays and in clear 384-well plates (Perkin Elmer, Cat #6007688) for viability assay (XTT reduction) by transferring 27 μL of cell suspensions (seeding 3000 cells per well) into each well. The plates were then transferred into an incubator for 18-20 h. The CMV-Luc cells were similarly seeded into white plates and incubated.
A pure compound library of 62,643 compounds consisting of synthetic and natural products described previously (Grohar et al., J Natl. Cancer Inst., 103: 962-978 (2011)) was then used in a high throughput screening campaign to identify inhibitors of PAX3-FOXO1. Stock DMSO Solutions of these compounds were used to prepare 100 μM solutions in growth medium in 384-well plates also containing 16 wells each of a positive control (Actinomycin D, Sigma, Cat #A1410) and negative control (DMSO). Screening compounds along with the positive and negative controls were added to assay plates by transferring 3 μL of the prepared 100 μM dilutions using an automated liquid handler (Agilent, Bravo). Treated plates were incubated for 24 h. At the end of this period, treated plates were allowed to equilibrate to room temperature for 30 minutes. SteadyLite Plus luciferase assay reagent powder (PerkinElmer, Cat #6066759) was reconstituted in its buffer in parallel and was also allowed to equilibrate to room temperature.
After transferring 30 μL of the luciferase assay reagent using a liquid handler, plates were further incubated at room temperature for 10 minutes. Finally, luminescence measurements were carried out using a multi-label microplate reader (BMG, Pherastar FSX) set in luminescence mode. Cell viability was assessed by adding XTT reagent (10 μL per well) in clear plates containing treated ALK-Luc cells. XTT treated plates were read using a plate reader in absorbance mode at 450 nm (PerkinElmer, Envision) after further incubation for 1 hour to allow cells to metabolize XTT to a colored formazan product. Luminescence and XTT absorbance values were normalized to the average of the negative controls on each plate and were calculated as a percentage of these controls. Performance of the screening assay was routinely monitored via calculation of Z-factor (Zhang et al., J. Biomol. Screen., 4: 67-73 (1999)) with Z′ for all plates found to be >0.7.
RH4 ALK-Luc and RH4 CMV-Luc cells were seeded into separate white-walled and bottomed 384-well plates and were incubated and treated with screen hits and epigenome compounds. The highest test concentration of these compounds (10-fold) were prepared from DMSO stock solutions via dilution in medium. […]

RH30 cells = assay: Cell confluence assay (cytotoxicity) in RH30 cells; assay type: cell-based; settings: 72 hour time point
Experimental: (§1) A cell confluence assay was performed to further assess the cytotoxicity of PFI-63 in RH4 and RH30 rhabdomyosarcoma cells. Confluence data was collected via photographic images of cells treated with PFI-63 at the following time points: 24 hours, 48 hours, 72 hours, 96 hours and 120 hours. Exemplary dose response curves at 72 hours are presented as FIGS. 10 and 11 in RH4 and RH30 cells, respectively.
as §1, with “to” for “to further”, “PFI-90” for “PFI-63”, “32” for “10”, “33” for “11”

Log P / solubility = assay type: physicochemical
RH4 cells = assay: Cell confluence assay (cytotoxicity) in RH4 cells; assay type: cell-based; settings: Homo sapiens, 72 hour time point
Experimental: as §1
as §1, with “to” for “to further”, “PFI-90” for “PFI-63”, “32” for “10”, “33” for “11”

[2] = system: NCI-60 cancer cell line panel; assay: NCI-60 cancer cell line panel, percentage growth; assay type: cell-based, human
Experimental: This example describes the testing of PFI-90 against the NCI-60 panel. The NCI-60 cancer cell line panel is a collection of 60 human cancer cell lines maintained by the National Cancer Institute (see Shoemaker et al., Nat. Rev. Cancer, 6: 813-823 (2006)). Briefly, the percentage growth of the cancer cells lines was measured in the presence of PFI-90 at various concentrations.

Cc1cc(C)cc(C(=O)NNC(=O)c2ccccn2)c1 [PFI-63]
H3K4me3 (Western blot) (histone H3 methylation; treated cells): global increase | H3K9me3 (Western blot) (histone H3 methylation; treated cells): global increase | H3K27me3 (Western blot) (histone H3 methylation; treated cells): global increase | caspase 3 (SCMC cells): increased caspase 3 | suppression of PAX3-FOXO1 super enhancer activity [1]: significant suppression | Avg Absorbance @ 1 μM, ALK-Luc [1]: 91.4 | Avg Absorbance @ 10 μM, ALK-Luc [1]: 40.1 | IC50 (RH30 cells): 4.82 µM | logP (Log P / solubility): 2.36 | IC50 (RH4 cells): 3.66 µM

O=C(NNc1ccccn1)c1ccccn1 [PFI-90]
cell growth ([2]; CNS cancer cell lines): inhibits cell growth | cell growth ([2]; breast cancer cell lines): inhibits cell growth | cell growth ([2]; colon cancer cell lines): inhibits cell growth | cell growth ([2]; leukemia cell lines): slows and/or stops the growth of the cells; also recorded: inhibits cell growth | cell growth ([2]; melanoma cell lines): inhibits cell growth | cell growth ([2]; non-small cell lung cancer cell lines): inhibits cell growth | cell growth ([2]; ovarian cancer cell lines): inhibits cell growth | cell growth ([2]; prostate cancer cell lines): inhibits cell growth | cell growth ([2]; renal cancer cell lines): inhibits growth and leads to cell death; also recorded: inhibits cell growth and induces cell death | methylation of histone H3 (Western blot) (histone H3 methylation; as the concentration increases): also increases | caspase 3 (SCMC cells): increased caspase 3 | Avg Absorbance @ 1 μM, ALK-Luc [1]: 55.9 | Avg Absorbance @ 10 μM, ALK-Luc [1]: 34.0 | IC50 (RH30 cells): 3.2 µM | logP (Log P / solubility): 0.82 | solubility (Log P / solubility; relative to PFI-63): improved solubility relative to PFI-63 | IC50 (RH4 cells): 0.812 µM
